Results published in patent US9216978B2, “Ring-fused pyrimidines and triazines and use thereof for the treatment and/or prophylaxis of cardiovascular diseases” (BAYER INTELLECTUAL PROPERTY GMBH, priority 2010, dated 2015).

Legend:
[1] = Determination of pharmacokinetic parameters after intravenous administration in rats; format: in vivo, rat; conditions: intravenous administration of 0.3 mg/kg; for MRT / half-life: male, Wistar, rat, plasma; for MRT: read-out: mean residence time; for half-life: read-out: terminal half-life (converted)
Method: B-4. Determination of Pharmacokinetic Parameters after Intravenous and Oral Administration
The pharmacokinetic parameters of the compounds of the formula (I) according to the invention are determined in male CD-1 mice, male Wistar rats and/or female beagles. The administration volume is 5 ml/kg for mice, 5 ml/kg for rats and 0.5 ml/kg for dogs. Intravenous administration is via a formulation of species-specific plasma/DMSO (99/1) in the case of mice and rats and via water/PEG400/ethanol (50/40/10 or 30/60/10) in the case of dogs. For easier removal of blood, a silicone catheter is inserted into the right Vena jugularis externa of the rats before the administration of substance. The surgical intervention takes place one day prior to the experiment with isofluran anaesthesia and administration of an analgetic (atropine/rimadyl (3/1) 0.1 ml s.c.). Substance administration is as i.v. bolus in the case of mice and rats and via a 15-minute infusion in the case of dogs. Removal of blood is after 0.033, 0.083, 0.17, 0.5, 1, 2, 3, 4, 6, 7 and 24 hours in the case of rats, after 0.033, 0.083, 0.17, 0.5, 1, 2, 3, 4, 6, 7, 24, 48 and 72 hours in the case of mice and after 0.083, 0.25, 0.28 0.33, 0.42, 0.75, 1, 2, 3, 4, 6, 7 and 24 hours in the case of dogs. For all species, oral administration of the dissolved substance via gavage is carried out based on a water/PEG400/ethanol formulation (50/40/10). Here, the removal of blood from rats is after 0.083, 0.17, 0.5, 0.75, 1, 2, 3, 4, 6, 7 and 24 hours and from dogs after 0.083, 0.17, 0.5, 0.75, 1, 2, 3, 4, 6, 7, 24, 30 and 48 hours. The blood is removed into heparinized tubes. The blood plasma is then obtained by centrifugation; if required, it can be stored at −20° C. until further processing.
An internal standard (ZK 228859) is added to the samples of the compounds of the formula (I) according to the invention, calibration samples and QCs, and the protein is precipitated using excess acetonitrile. After addition of an ammonium acetate buffer (0.01 M, pH 6.8) and subsequent vortexing, the mixture is centrifuged at 1000 g and the supernatant is examined by LC-MS/MS (API 4000, AB Sciex). Chromatographic separation is carried out on an Agilent 1100-HPLC. The injection volume is 10 μl. The separation column used is a Phenomenex Luna 5μ C8(2) 100 A 50×2 mm, adjusted to a temperature of 40° C. A binary mobile phase gradient at 500 μl/min is used (A: 0.01 M ammonium acetate buffer pH 6.8, B: 0.1% formic acid in acetonitrile): 0 min (90% A), 1 min (90% A), 3 min (15% A), 4 min (15% A), 4.50 min (90% A), 6 min (90% A). The temperature of the Turbo V ion source is 500° C. The following MS instrument parameters are used: curtain gas 15 units, ion spray voltage 4.8 kV, gas 1 45 units, gas 2 35 units, CAD gas 40 units. The substances are quantified by peak heights or areas using extracted ion chromatograms of specific MRM experiments.
The pharmacokinetic parameters such as AUC, Cmax, t1/2 (terminal half-life), MRT (mean residence time) and CL (clearance) are calculated by means of the validated pharmacokinetics calculation program KinEx (Vers. 2.5 and 3) from the plasma concentration-time curves obtained.
As substance quantification takes place in plasma, the blood/plasma distribution of the substance must be determined for appropriate adjustment of the pharmacokinetic parameters. For this, a defined amount of the substance in heparinized whole blood of the corresponding species is incubated for 20 min in the tumbling roller mixer. After centrifugation at 1000 g, the plasma concentration is measured (see above) and the Cblood/Cplasma value is determined by finding the quotient.
Following intravenous administration of 0.3 mg/kg of Example 1, 18, 19 and 27 in rats, the following values were recorded: […]

[2] = target: T1, recombinant guanylate cyclase reporter cell line (Rattus norvegicus, UniProt P19686+P20595); assay: Action on recombinant guanylate cyclase reporter cell line; format: cell-based
T1 construct: expressed in transfected cells
T1 sequence (P20595 1-619): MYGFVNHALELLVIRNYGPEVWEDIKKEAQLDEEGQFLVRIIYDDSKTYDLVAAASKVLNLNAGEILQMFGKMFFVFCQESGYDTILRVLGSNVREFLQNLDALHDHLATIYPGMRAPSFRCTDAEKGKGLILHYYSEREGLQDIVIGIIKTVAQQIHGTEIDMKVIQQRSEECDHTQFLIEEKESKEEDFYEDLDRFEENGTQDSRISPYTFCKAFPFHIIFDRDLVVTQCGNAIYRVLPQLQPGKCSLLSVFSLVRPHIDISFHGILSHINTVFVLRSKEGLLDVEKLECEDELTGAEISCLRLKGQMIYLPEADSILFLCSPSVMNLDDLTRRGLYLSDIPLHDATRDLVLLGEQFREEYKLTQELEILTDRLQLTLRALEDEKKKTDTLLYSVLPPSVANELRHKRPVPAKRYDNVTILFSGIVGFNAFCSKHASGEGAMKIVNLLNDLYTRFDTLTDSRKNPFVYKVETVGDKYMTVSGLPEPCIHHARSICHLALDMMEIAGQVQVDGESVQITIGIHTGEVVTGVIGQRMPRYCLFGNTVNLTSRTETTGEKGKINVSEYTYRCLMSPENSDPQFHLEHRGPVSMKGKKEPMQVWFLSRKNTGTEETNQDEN
T1 sequence (P19686 1-690): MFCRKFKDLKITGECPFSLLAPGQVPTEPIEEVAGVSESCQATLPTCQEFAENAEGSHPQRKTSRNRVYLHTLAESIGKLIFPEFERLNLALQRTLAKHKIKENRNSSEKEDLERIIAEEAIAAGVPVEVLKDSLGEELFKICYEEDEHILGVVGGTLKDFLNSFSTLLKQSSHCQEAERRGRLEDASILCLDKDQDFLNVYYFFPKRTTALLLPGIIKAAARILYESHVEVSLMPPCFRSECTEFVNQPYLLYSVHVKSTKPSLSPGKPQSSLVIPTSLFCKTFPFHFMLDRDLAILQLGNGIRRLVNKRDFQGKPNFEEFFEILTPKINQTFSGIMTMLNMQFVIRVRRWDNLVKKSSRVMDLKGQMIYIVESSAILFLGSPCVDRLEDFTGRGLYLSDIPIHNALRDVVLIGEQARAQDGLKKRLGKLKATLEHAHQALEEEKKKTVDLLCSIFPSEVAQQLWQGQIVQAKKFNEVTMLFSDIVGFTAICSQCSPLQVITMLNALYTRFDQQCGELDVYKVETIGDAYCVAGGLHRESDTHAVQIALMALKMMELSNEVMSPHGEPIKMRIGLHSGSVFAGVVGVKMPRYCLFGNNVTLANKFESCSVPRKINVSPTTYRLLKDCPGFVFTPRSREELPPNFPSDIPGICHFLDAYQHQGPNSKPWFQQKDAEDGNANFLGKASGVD
Method: B-2. Action on Recombinant Guanylate Cyclase Reporter Cell Line
The cellular action of the compounds according to the invention is determined on a recombinant guanylate cyclase reporter cell line, as described in F. Wunder et al., Anal. Biochem. 339, 104-112 (2005).

aorta = assay: Vessel-relaxing action in vitro (phenylephrine-contracted aorta rings); conditions: Oryctolagus cuniculus; rabbit aorta rings, phenylephrine contraction; concentration reducing control contraction by 50%
Method: B-1. Vessel-Relaxing Action In Vitro
Rabbits are stunned with a blow on the back of the neck and exsanguinated. The aorta is removed, freed from adhering tissue, separated into rings with a width of 1.5 mm, and placed individually, with preloading, in 5-ml organ baths with carbogen-gassed Krebs-Henseleit solution at 37° C. with the following composition (mM in each case): sodium chloride: 119; potassium chloride: 4.8; calcium chloride dihydrate: 1; magnesium sulphate heptahydrate: 1.4; potassium dihydrogen phosphate: 1.2; sodium hydrogen carbonate: 25; glucose: 10. The contraction force is recorded with Statham UC2 cells, amplified and digitized via an A/D converter (DAS-1802 HC, Keithley Instruments Munich) and recorded in parallel on a continuous-line recorder. To produce contraction, phenylephrine is added to the bath cumulatively in increasing concentration. After several control cycles, the test substance is added in increasing dosage in each subsequent pass and the level of contraction is compared with the level of contraction reached in the immediately preceding pass. This is used for calculating the concentration that is required to reduce the level of the control value by 50% (IC50 value). The standard application volume is 5 μl, and the proportion of DMSO in the bath solution corresponds to 0.1%.

| SMILES | CLblood [1] [mL/min/kg] | MRT [1] [h] | half-life [1] [h] | MEC (minimal effective concentration) [2] [µM] | IC50 (aorta) [nM] |
| --- | --- | --- | --- | --- | --- |
| O=C1Nc2nc(-c3nn(Cc4ccccc4F)c4ncccc34)ncc2C1(O)C(F)(F)F (stereo not drawn) [Example 18, 2-[1-(2-Fluorobenzyl)-1H-pyrazolo[3,4-b]pyridin-3-yl]-5-hydroxy-5-(trifluoromethyl)-5,7-dihydro-6H-pyrrolo[2,3-d]pyrimidin-6-one] | 7.67 | 1.9 | 1.4 | 0.03 | 93 |
| CC(C)(C)OC(=O)CC1(O)C(=O)Nc2nc(-c3nn(Cc4ccccc4F)c4ncccc34)ncc21 (stereo not drawn) [Example 24, tert-Butyl {2-[1-(2-fluorobenzyl)-1H-pyrazolo[3,4-b]pyridin-3-yl]-5-hydroxy-6-oxo-6,7-dihydro-5H-pyrrolo[2,3-d]pyrimidin-5-yl}acetate] |  |  |  | 0.3 | 269 |
| COC(=O)NC1C(=O)Nc2nc(-c3nn(Cc4ccccc4F)c4ncccc34)ncc21 (stereo not drawn) [Example 26, Methyl {2-[1-(2-fluorobenzyl)-1H-pyrazolo[3,4-b]pyridin-3-yl]-6-oxo-6,7-dihydro-5H-pyrrolo[2,3-d]pyrimidin-5-yl}carbamate] |  |  |  | 0.3 | 840 |
| CC1(C)C(=O)Nc2nc(-c3nn(Cc4ccc(F)cc4F)c4ncccc34)nnc21 [Example 28, 3-[1-(2,4-Difluorobenzyl)-1H-pyrazolo[3,4-b]pyridin-3-yl]-7,7-dimethyl-5,7-dihydro-6H-pyrrolo[2,3-e][1,2,4]triazin-6-one] |  |  |  | 0.3 | 103 |
| O=C1Nc2nc(-c3nn(Cc4ccccc4F)c4ncc(F)cc34)ncc2C12CC2 [Example 30, 2′-[5-Fluoro-1-(2-fluorobenzyl)-1H-pyrazolo[3,4-b]pyridin-3-yl]spiro[cyclopropane-1,5′-pyrrolo[2,3-d]pyrimidin]-6′(7′H)-one] |  |  |  | 0.03 | 97 |

Stronger by IC50 (aorta), values ahead:

| CLblood [1] [mL/min/kg] | MRT [1] [h] | half-life [1] [h] | MEC (minimal effective concentration) [2] [µM] | IC50 (aorta) [nM] | SMILES |
| --- | --- | --- | --- | --- | --- |
| 18.3 | 1.2 | 0.9 | 0.01 | 12 | CC1(C)C(=O)Nc2nc(-c3nn(Cc4ccccc4F)c4ncccc34)ncc21 [Example 1, 2-[1-(2-Fluorobenzyl)-1H-pyrazolo[3,4-b]pyridin-3-yl]-5,5-dimethyl-5,7-dihydro-6H-pyrrolo[2,3-d]pyrimidin-6-one] |
|  |  |  | 0.03 | 45 | CC1(C)C(=O)Nc2nc(-c3nn(Cc4cccc(F)c4F)c4ncc(F)cc34)nnc21 [Example 20, 3-[1-(2,3-Difluorobenzyl)-5-fluoro-1H-pyrazolo[3,4-b]pyridin-3-yl]-7,7-dimethyl-5,7-dihydro-6H-pyrrolo[2,3-e][1,2,4]triazin-6-one] |
|  |  |  | 0.03 | 15 | CC1(F)C(=O)Nc2nc(-c3nn(Cc4ccccc4F)c4ncccc34)ncc21 (stereo not drawn) [Example 23, 5-Fluoro-2-[1-(2-fluorobenzyl)-1H-pyrazolo[3,4-b]pyridin-3-yl]-5-methyl-5,7-dihydro-6H-pyrrolo[2,3-d]pyrimidin-6-one] |
| 5.83 | 7.3 | 5.6 | 0.03 | 54 | CC1(C)C(=O)Nc2nc(-c3nn(Cc4cccc(F)c4F)c4ncccc34)nnc21 [Example 27, 3-[1-(2,3-Difluorobenzyl)-1H-pyrazolo[3,4-b]pyridin-3-yl]-7,7-dimethyl-5,7-dihydro-6H-pyrrolo[2,3-e][1,2,4]triazin-6-one] |
